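Dose response: 5 concentrations. Exposure: 48 h. Format: 96-well plates. Endpoint: linear interpolation; highest concentration if not reached. GI50 marks 50% less growth. TGI is the concentration that stops growth completely.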
Experiments:
Assay in all cases: NCI tumour cell line growth inhibition, 48 h
NCI/ADR-RES ovarian = system: NCI/ADR-RES ovarian
T-47D breast = system: T-47D breast
DU-145 prostate = system: DU-145 prostate
KM12 colon = system: KM12 colon
HT29 colon = system: HT29 colon
HOP-62 NSCLC = system: HOP-62 NSCLC
SK-MEL-2 melanoma = system: SK-MEL-2 melanoma
SF-539 CNS = system: SF-539 CNS
SW-620 colon = system: SW-620 colon
U251 CNS = system: U251 CNS

Row | SMILES | GI50 (NCI/ADR-RES ovarian) | TGI (NCI/ADR-RES ovarian) | GI50 (T-47D breast) | TGI (T-47D breast) | GI50 (DU-145 prostate) | TGI (DU-145 prostate) | GI50 (KM12 colon) | TGI (KM12 colon) | GI50 (HT29 colon) | TGI (HT29 colon) | GI50 (HOP-62 NSCLC) | TGI (HOP-62 NSCLC) | GI50 (SK-MEL-2 melanoma) | TGI (SK-MEL-2 melanoma) | GI50 (SF-539 CNS) | TGI (SF-539 CNS) | GI50 (SW-620 colon) | TGI (SW-620 colon) | GI50 (U251 CNS) | TGI (U251 CNS)
1 | Nc1nc(N)c2nc(CNc3ccc(C(=O)NC(CC(=O)O)C(=O)O)cc3)cnc2n1 (stereo not given) | 0.638 µM | > 100 µM | > 65.6 µM | > 100 µM | 0.682 µM | > 100 µM | 0.897 µM | > 100 µM | 0.542 µM | > 100 µM | 6.4 µM | > 100 µM | 0.412 µM | > 100 µM | 3.93 µM | > 100 µM | 0.274 µM | > 100 µM | 1.97 µM | > 100 µM
2 | CCCCC[C@H]1C/C=C2/C(=O)C=C[C@@H]2C/C=C\CCCC(=O)O[C@@H](CCCCC)C/C=C2/C(=O)C=C[C@@H]2C/C=C\CCCC(=O)O1 | 0.776 µM | 4.57 µM | 0.236 µM | 0.819 µM | 0.355 µM | 1.34 µM | 0.382 µM | 0.786 µM | 0.218 µM | 0.822 µM | 0.536 µM | 1.29 µM | 0.385 µM | 1.22 µM | 0.423 µM | 1.09 µM | 0.135 µM | 0.734 µM | 0.151 µM | 0.473 µM
3 | O=C(Nc1cccc(-n2cc(-c3ccncc3)c(-c3cc(O)cc(Cl)c3)n2)c1)Nc1ccc(Cl)c(C(F)(F)F)c1 | 3.4 µM | 23.6 µM | 2.44 µM | 9.27 µM | 3.27 µM | 11.7 µM | 2.59 µM | 9.86 µM | 2.12 µM | 4.58 µM | 3.08 µM | 13.4 µM | 2.2 µM | 4.55 µM | 1.97 µM | 4.49 µM | 3.29 µM | 10.7 µM | 1.72 µM | 3.65 µM
4 | C=CCC1(O)c2ccccc2C(=O)c2c(NCCN(CC(=O)OCC)CC(=O)OCC)cccc21 (stereo not given) | > 100 µM | > 100 µM | 80.6 µM | > 100 µM | > 100 µM | > 100 µM | > 100 µM | > 100 µM | > 100 µM | > 100 µM | > 100 µM | > 100 µM | > 100 µM | > 100 µM | > 100 µM | > 100 µM | > 100 µM | > 100 µM | > 100 µM | > 100 µM
5 | CCOC(=O)c1cc2c(n1Cc1cccc(OC)c1)-c1oncc1CCC2 | 0.69 µM | > 21.7 µM | 1.27 µM | > 100 µM | 2.46 µM | > 32.5 µM | 0.58 µM | > 100 µM | 0.401 µM | 22.8 µM | 3.54 µM | > 100 µM | 0.535 µM | 14.9 µM | 1.19 µM | 4.68 µM | 0.554 µM | > 100 µM | 2.16 µM | > 100 µM
6 | CCN(Cc1ccc(F)cc1)c1ccc(CO)c(F)c1 | 18 µM | 68.7 µM | 1.35 µM | 8.31 µM | 23.5 µM | > 100 µM | 22.9 µM | > 71.8 µM | 16 µM | > 53.9 µM | 15.2 µM | > 100 µM | 10.5 µM | 26.8 µM | 18.8 µM | 56.5 µM | 7.09 µM | > 100 µM | 12.5 µM | > 63 µM
7 | NC(=O)c1ccc(I)c(N=O)c1 | 44.9 µM | > 100 µM | 32.3 µM | 87.8 µM | 43.7 µM | > 100 µM | 40.7 µM | > 100 µM | 20.6 µM | 39.5 µM | 57.6 µM | > 100 µM | 31.3 µM | 87.8 µM | 32.3 µM | > 100 µM | 18.3 µM | 33.3 µM | 18.6 µM | 36.8 µM

Reference: PubChem BioAssay (NCI)
